Measured values from patent US10139394B2, “Method for controlling cancer metastasis or cancer cell migration by modulating the cellular level of lysyl tRNA synthetase” (Medicinal Bioconvergence Research Center, priority 2008, dated 2018).

Experiments:
[1] = tested on: MMP-2; assay: MMP-2 zymography; assay type: cell-based; conditions: A549 cells; laminin 10 μg/ml 24 hr; FIG. 19
Method: In FIG. 18, A549 cells were transfected with the indicated plasmids, incubated in the absence and presence of laminin and their effect on cell migration was determined by measuring the migrated cells in transwell chamber as described. The numbers of the cells passed through the membrane were counted and shown in each panel. The experiments were performed three times. In FIG. 19, the cells treated as above were used to determine MMP-2 activity and level by zymography and Western blotting, respectively. In FIG. 20, Breast carcinoma 4T-1 cells were transfected with the indicated siRNA and subcutaneously injected to the back of Balb/C mice. After 21 days, mouse lungs were isolated and tumor nodules over 1 mm in diameter were counted. In FIG. 21, two different 4T-1 cells stably expressing exogenously introduced KRS (KRS-1 and -2) were also inoculated as above and the tumor nodules were counted 30 days after injection. 4T-1 cells with empty vector were used as control. In FIG. 22, expression levels of KRS and 67LR in lung (upper) and breast (lower) cancer tissues were compared by immunohistochemical staining with their respective antibodies. 39 lung and 40 breast cancer tissues were subjected to immunohistochemical staining with anti-KRS and anti-67LR antibodies and their expression levels were compared with those in normal tissues (9 samples for each tissue). […]

[2] = tested on: membrane translocation of KRS; assay: Laminin-dependent membrane translocation of KRS and 67LR, cell fractionation and Western blotting; assay type: cell-based; conditions: A549 cells; laminin 10 ug/ml, time course; FIG. 7
Method: In FIG. 7, A549 cells were treated with laminin (10 ug/ml) and the level of 67LR, 37LRP and KRS was determined by Western blotting at the indicated times. Hsp90 and Cadherin were used as markers for cytoplasm and membrane, respectively. In FIG. 8, A549 cells untreated or treated with laminin for 1 h were subjected to immunofluorescence staining with anti-67LR (MLuC5, Santacruz, sc-59732) (red) and -KRS antibodies (green). In FIG. 9, A549 cells were treated with U73122 (U), staurosporin (ST) and LY294002 (LY) that inhibit PLC-gamma, PKC and PI3K, respectively, for 3 hr, then with laminin for 1 hr and checked how these kinase inhibitors would affect the membrane and cytoplasmic level of 67LR and KRS. In FIG. 10, A549 cells were transfected with Myc-KRS and incubated for 24 h. The cells were treated with the indicated chemicals and then with laminin as above. Myc-KRS was immunoprecipitated, and immunoblotted with anti-p-Thr, -Ser, and -Tyr antibodies. In FIG. 11, A549 cells were transfected with Myc-KRS and cultivated for 24 hr. The transfectants were pre-treated with LY294002 for 3 hr and then treated with laminin for 1 h. Myc-KRS was immunoprecipitated and co-precipitation of 67LR was determined by Western blotting. IgG was used as a control for immunoprecipitation. In FIG. 12, A549 cells were cultivated in the absence and presence of laminin and LY294002 as indicated. EPRS (glutamyl-prolyl-tRNA synthetase) was immunoprecipitated with its specific antibody (AbCam), and co-immunoprecipitation of KRS was determined by Western blotting (upper). The immune-depleted supernatant (ID) were subjected to Western blottingting with anti-KRS and -EPRS antibodies.
The cells were lysed with 20 mM Tris-HCl (pH 7.4) buffer containing 150 mM NaCl, 0.5% TritonX-100, 0.1% SDS, and protease inhibitor. The protein extracts were incubated with normal IgG and protein G agarose for 2 hr and then centrifuged to remove nonspecific IgG binding proteins. […]

Q: Which results are given for “laminin: laminin (Engelbreth-Holm-Swarm murine sarcoma) from Sigma”?
A: MMP-2 activity [1]: enhanced; membrane level of KRS and 67LR [2]: gradually increased
